The source of these data is publication PMC11866022, “Long-Chain Cyclic Arylguanidines as Multifunctional Serotonin Receptor Ligands with Antiproliferative Activity” (ACS Omega, 2025).

SMILES strings stand for the structures.

One series deals with T1, 5-HT6 (Homo sapiens, UniProt P50406).
T1 construct: expressed in transfected cells; host or cells: HEK293
Kind of series: Radioligand binding assay, 5-HT6 ([3H]-LSD). Conditions: HEK293 cell line with human 5-HT6R; 2 nM [3H]-LSD. Here is the method: Ligand affinity for 5-HT6 receptors was subsequently tested with a radioligand binding assay, using the HEK293 cell line with human 5-HT6R, aiming to select compounds with the strongest affinity. Three compounds belonging to 2-naphthalenesulfonamide derivatives of 3,4-dihydroquinazolin-2-amines were obtained (Table 1).
The detailed procedure is presented in previous publications.[53] Assays were performed by incubating for 1 h at 37 °C (room temperature for 5-HT1A) in 200 μL volumes on 96-well plates. The reaction was terminated by rapid filtration using Unifilter plates, and radioactivity on the filters was measured with a PerkinElmer Microbeta plate reader. Radioligands used were:
Eight concentrations (10^–4 to 10^–11 M) were tested in triplicate for each compound. Inhibition constants (Ki) were calculated using the Cheng–Prusoff equation.[54] The results are expressed as the means of at least two independent experiments.

The test system of a further series is 1321N1 astrocytoma cells. Nature of the series: Antiproliferative activity (MTS), 1321N1. In kind it is cell-based, human. The note with it: Homo sapiens, 1321-N1; MTS assay. Here is the method: (§1) These cell lines were characterized by different mutation profiles, the main one being the variable status of the p53 protein. In detail, U87MG cells have a wild-type p53 protein, while astrocytoma and the rest of GBM cells harbor mutated p53 protein. Additional assays were performed on MCF7 breast cancer and AsPC-1 pancreatic cancer cells. The wide range of tested lines was aimed at screening the anticancer potential of the tested compounds. The first represents one of the most common and the second one of the most aggressive cancers in the world. Comparing the activity of compounds on GBM cells to other types of cancer may reveal their selectivity and usefulness in targeted therapies. The cytotoxicity of the compounds on normal human astrocytes (NHA) and Feline catus astrocyte (PG-4) was determined. Tests on normal lines serve to verify the potential toxicity of the tested compounds on healthy cells. Due to the targeting of CNS tumors, astrocytes were selected as normal lines.
(§2) The detailed procedure is presented in previous publications.[53] […] Cells were cultured in appropriate media, supplemented with FBS, antibiotics, and other supplements, and incubated at 37 °C with 5% CO2. […] Cell viability was assessed using the MTS assay, and the inhibitory concentration (IC50) was calculated using GraphPad Prism 8.0. Each compound was tested in triplicate across multiple experiments.
Supplementary materials - Biological research […]
On the technique in general: Tetrazolium assays rely on reduction of a dye to a coloured formazan, in cell work by metabolically active cells.

The test system of the next series is U87MG glioblastoma cells. Nature of the series: Antiproliferative activity (MTS), U87MG. Conditions: Homo sapiens, U-87 MG; MTS assay. Type of series: cell-based, human. Here is the method: as §1, §2
Supplementary materials - Biological research
B) U87MG glioblastoma multiforme line.
and U87MG glioblastoma multiforme line for C) PP 3; D) PP 6; E) PP 8; F) PP 10; G) PP 11; H) PP

Series [1] deals with LN-229 glioblastoma cells. Kind of series: Antiproliferative activity (MTS), LN-229. Conditions: Homo sapiens, LN-229; MTS assay, 72 h. Type of series: cell-based, human. Here is the method: as §1, §2
For the next series, the system named is U-251 glioblastoma cells. Kind of series: Antiproliferative activity (MTS), U-251. In kind it is cell-based, human. The note with it: Homo sapiens, U-251; MTS assay, 72 h. Here is the method:
as §1, §2

In another series the test system is MCF7 breast cancer cells. Nature of the series: Antiproliferative activity (MTS), MCF7. The note with it: Homo sapiens, MCF7; MTS assay, 72 h. In kind it is cell-based, human. Here is the method: as §1, §2
Series [2] relates to AsPC-1 pancreatic cancer cells. Kind of series: Antiproliferative activity (MTS), AsPC-1. Type of series: cell-based, human. Conditions: Homo sapiens, ASPC1; MTS assay, 72 h. Here is the method:
as §1, with “The chosen group of ligands was further examined for their ability to inhibit proliferation across multiple cancer cell lines related to the CNS system (1321N1, U87MG, LN-229, and U-251). These” for “These”
The detailed procedure is presented in previous publications.[53] Briefly, the study utilized various human cancer and normal cell lines, including LN-229 (glioblastoma), MCF7 (breast carcinoma), HepG2 (hepatoma), U-251 (glioblastoma), U87MG (glioblastoma), AsPC-1 (pancreatic adenocarcinoma), and NHA (normal human astrocytes). Cells were cultured in appropriate media, supplemented with FBS, antibiotics, and other supplements, and incubated at 37 °C with 5% CO2. Compounds were dissolved in DMSO, prepared at various concentrations (1–25 μM), and applied to the cells for 72 h. Cell viability was assessed using the MTS assay, and the inhibitory concentration (IC50) was calculated using GraphPad Prism 8.0. Each compound was tested in triplicate across multiple experiments.

A short description of series [3]: Lipophilicity, chromatographic hydrophobicity index on C18 (Valko protocol). In kind it is physicochemical. Here is the method: (§3) Lipophilicity and affinity for phospholipids for each investigated molecule were assessed. Additionally, selected compounds with the highest biological activities have been characterized by their affinity plasma proteins. All experiments were performed using protocols developed by Valko.[35] These methods facilitated the calculation of chromatographic hydrophobicity indices (CHI) and plasma protein binding percentages (%PPB) in a biochromatographic experiment, with results compared to the reference. A detailed description of the experiments is provided in the Supporting Information (SI), along with the raw data. […] Although high lipophilicity may limit the medical use of the analyzed compounds since they may tend to accumulate excessively in the human body, it is remarkable that several clinically used drugs also have high lipophilicity. […] (Table 5).
(§4) The detailed procedure is presented in previous publications.[53] High-performance liquid chromatography (HPLC) analyses were conducted using the Prominence-1 LC-2030C 3D system (Shimadzu) with a DAD detector, employing three different chromatographic columns with specific stationary phases and mobile phases. The analysis was performed at 30 °C with a flow rate of 1.5 mL/min for IAM and C18 columns, and 0.9 mL/min for the Chiralpak column. Calibration standards for the columns were sourced from various suppliers and dissolved in dimethyl sulfoxide. Detection occurred in the UV range (190–300 nm) with a 5 μL injection volume. Each compound was analyzed in triplicate. Retention times for the tested compounds and calibration standards are provided in the Supporting Information (Tables S1 and S2).

Series [4] in a line: Affinity to phospholipids, CHI IAM (Valko protocol). Type of series: physicochemical. Conditions: IAM column. Here is the method:
as §3, §4

Series [5] addresses T2, human serum albumin (HSA) (Homo sapiens, UniProt P02768).
T2 construct: purchased
Kind of series: HSA binding by biochromatography (HSA column). In kind it is in vitro ADME. Conditions: HSA column. Here is the method:
as §3, §4

Series [6] is described as follows: Metabolic stability in mouse liver microsomes. In kind it is in vitro ADME. The note with it: MLMs, 120 min. The source says:
Moving on to the next parameter, which is metabolism, we determined metabolic stability, using mouse liver microsomes (MLMs). […]
Main metabolic pathways are marked in red.
A general note: Liver microsomes are vesicles of endoplasmic reticulum, rich in cytochrome P450 enzymes.

T2 sequence (P02768 25-609): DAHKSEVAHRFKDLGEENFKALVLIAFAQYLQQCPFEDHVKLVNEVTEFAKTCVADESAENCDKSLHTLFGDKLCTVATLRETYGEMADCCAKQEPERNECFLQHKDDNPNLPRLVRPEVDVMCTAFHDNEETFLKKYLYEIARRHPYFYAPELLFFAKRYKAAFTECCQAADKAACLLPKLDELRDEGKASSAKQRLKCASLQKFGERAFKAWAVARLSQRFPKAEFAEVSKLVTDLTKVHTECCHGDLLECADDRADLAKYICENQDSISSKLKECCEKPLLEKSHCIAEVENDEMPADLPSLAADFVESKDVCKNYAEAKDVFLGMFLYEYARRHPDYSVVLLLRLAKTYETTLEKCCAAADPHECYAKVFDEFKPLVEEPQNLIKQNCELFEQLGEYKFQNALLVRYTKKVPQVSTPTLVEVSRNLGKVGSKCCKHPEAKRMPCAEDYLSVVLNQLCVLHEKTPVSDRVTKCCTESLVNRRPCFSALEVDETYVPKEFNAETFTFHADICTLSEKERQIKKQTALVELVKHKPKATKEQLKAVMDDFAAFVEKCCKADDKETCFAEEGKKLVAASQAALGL
T1 sequence (P50406 whole entry): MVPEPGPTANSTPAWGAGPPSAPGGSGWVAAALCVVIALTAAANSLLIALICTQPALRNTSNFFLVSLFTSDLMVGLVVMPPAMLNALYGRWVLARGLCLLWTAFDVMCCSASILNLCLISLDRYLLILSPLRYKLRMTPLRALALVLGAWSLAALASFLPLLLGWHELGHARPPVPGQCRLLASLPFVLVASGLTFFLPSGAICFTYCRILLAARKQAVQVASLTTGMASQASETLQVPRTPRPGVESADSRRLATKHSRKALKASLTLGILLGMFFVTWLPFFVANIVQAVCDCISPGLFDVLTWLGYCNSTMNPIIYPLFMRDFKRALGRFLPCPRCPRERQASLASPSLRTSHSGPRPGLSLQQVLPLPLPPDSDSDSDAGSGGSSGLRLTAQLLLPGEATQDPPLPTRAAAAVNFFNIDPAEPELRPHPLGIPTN

Take `O=S(=O)(NCCNc1ncc2ccccc2n1)c1cccc2ccccc12` [PP 14, N-{2-[(Quinazolin-2-yl)amino]ethyl}naphthalene-1-sulfonamide]: the Ki (usually the dissociation constant of the complex between target and ligand, obtained from inhibition or displacement) at 5-HT6 turned out to be 4180 ± 1040 nM. The IC50 (in the series with 1321N1 astrocytoma cells; in the series on U87MG glioblastoma cells; in series [1]; in the series on U-251 glioblastoma cells; in the series with MCF7 breast cancer cells; in series [2]) was > 25 µM each time. The “CHI C18 pH 2.6” value in [3] turned out to be 78.3. Moreover, the “CHI C18 pH 7.4” value in [3] came to 86.3. Moreover, the “CHI C18 pH 10.5” value in series [3] was 87.1. Also, the “CHI IAM” value in [4] is 37.2. Further, the “%HSA” value in series [5] stood at 95.0%. In addition, the logKHSA in series [5] is 1.2.
As for `O=S(=O)(NCCCCCCNC1=NCc2ccccc2N1)c1ccc2ccccc2c1` [PP 3, N-{6-[(1,4-Dihydroquinazolin-2-yl)amino]hexyl}naphthalene-2-sulfonamide], on 5-HT6, affinity was put at a Ki of 201 ± 50 nM. Moreover, the figures for the IC50 in the series with 1321N1 astrocytoma cells and in the series on U87MG glioblastoma cells were 13.3 ± 0.1 µM and 12 ± 0.9 µM, respectively.
With `c1ccc2c(c1)CNC(NCCc1cccc3ccccc13)=N2` [PP 19, N-[2-(Naphthalen-1-yl)ethyl]-3,4-dihydroquinazolin-2-amine], the inhibition constant Ki at 5-HT6 turned out to be 1870 ± 460 nM. Besides, the IC50 (in [1]; in the series on U-251 glioblastoma cells; in the series with MCF7 breast cancer cells; in series [2]) was > 25 µM each time.
As to `c1ccc(CCNc2nc3ccccc3[nH]2)cc1` [PP 18, N-(2-Phenylethyl)-1H-1,3-benzimidazol-2-amine], at 5-HT6, the “5-HT6 Ki” value is listed as “did not show any affinity” and the affinity, expressed as Ki, was 19800 ± 4950 nM.
Take `c1ccc2c(N3CCN(c4nc5ccccc5[nH]4)CC3)cccc2c1` [PP 20, 2-[4-(Naphthalen-1-yl)piperazin-1-yl]-1H-1,3-benzodiazole]: on 5-HT6, the “5-HT6 Ki” value is on record as “did not show any affinity”. The affinity at 5-HT6 corresponds to a Ki of 5060 ± 1260 nM. Also, the IC50 (in series [1]; in the series on U-251 glioblastoma cells; in the series on MCF7 breast cancer cells; in [2]) was > 25 µM each time.
`c1ccc2c(c1)CNC(NCCCCCCNc1nsc3ccccc13)=N2` [PP 23, N6-(1,2-Benzothiazol-3-yl)-N1-(3,4-dihydroquinazolin-2-yl)hexane-1,6-diamine] registered a Ki at 5-HT6 of 975 ± 244 nM.
Still for that read-out and setting: under `O=S(=O)(NCCCCNC1=Nc2ccccc2CN1)c1cccc2ccccc12` [PP 7, N-{4-[(3,4-Dihydroquinazolin-2-yl)amino]butyl}naphthalene-1-sulfonamide] stands 697 ± 174 nM.
The same measure, in the same setting: under `O=S(=O)(c1ccc2ccccc2c1)N1CCN(C2=Nc3ccccc3CN2)CC1` [PP 1, 2-[4-(Naphthalene-2-sulfonyl)piperazin-1-yl]-3,4-dihydroquinazoline] stands 8660 ± 2160 nM; under `O=S(=O)(NCCCCNC1=NCc2ccccc2N1)c1ccc2ccccc2c1` [PP 2, N-{4-[(1,4-Dihydroquinazolin-2-yl)amino]butyl}naphthalene-2-sulfonamide], 616 ± 154 nM.
Regarding `CC1NC(NCCCCCCNS(=O)(=O)c2cccc3ccccc23)=Nc2c(Cl)cc(Cl)cc21` (stereo not drawn) [PP 12, N-{6-[(6,8-Dichloro-4-methyl-3,4-dihydroquinazolin-2-yl)amino]hexyl}naphthalene-1-sulfonamide], the Ki at 5-HT6 turned out to be 208 ± 52 nM. For the same compound, 5.7 ± 0.1 µM corresponded to half-maximal inhibition with 1321N1 astrocytoma cells (IC50). Half-maximal inhibition in the series with U87MG glioblastoma cells (IC50) required 9.5 ± 0.7 µM. Besides, in [3], the “CHI C18 pH 2.6” value came out at 97.1, the “CHI C18 pH 7.4” value came to 111.2 and the “CHI C18 pH 10.5” value was 121.8. The “CHI IAM” value in series [4] was determined as 59.4. In [5], the “%HSA” value amounted to 99.7% and the logKHSA turned out to be 1.9. The “metabolic stability, % of remaining” value in series [6] is given as 76.87%.
On to `COc1cccc2c1C(=O)c1c(O)c3c(c(O)c1C2=O)C[C@@](O)(C(=O)CO)C[C@@H]3O[C@H]1C[C@H](N)[C@H](O)[C@H](C)O1` [Doxorubicin, reference compound], for which, in the series on 1321N1 astrocytoma cells, the IC50 (usually the concentration needed to halve the response being measured) was 1.1 µM. This counts as single-digit micromolar.
For `O=S(=O)(NCCCCCCNC1=Nc2ccccc2CN1)c1cccc2ccccc12` [PP 8, N-{6-[(3,4-Dihydroquinazolin-2-yl)amino]hexyl}naphthalene-1-sulfonamide], on 5-HT6, the affinity, expressed as Ki, was 98 ± 25 nM. Moreover, the IC50 in the series on 1321N1 astrocytoma cells was 18.4 ± 2.9 µM; in the series with U87MG glioblastoma cells, 24.5 ± 1.4 µM; in series [1] it was > 25 µM; in the series on U-251 glioblastoma cells, > 25 µM; with MCF7 breast cancer cells it was > 25 µM; in [2], > 25 µM.
On 5-HT6, `O=S(=O)(NCCCCCCNc1ncccn1)c1cccc2ccccc12` [PP 16, N-{6-[(Pyrimidin-2-yl)amino]hexyl}naphthalene-1-sulfonamide] had a Ki of 3100 ± 776 nM. Further, the IC50 (in [1]; in the series with U-251 glioblastoma cells; in the series on MCF7 breast cancer cells; in [2]) was > 25 µM each time.
As for `c1ccc(CNc2nc3ccccc3[nH]2)cc1` [PP 17, N-Benzyl-1H-1,3-benzimidazol-2-amine], on 5-HT6, the “5-HT6 Ki” value is recorded as “did not show any affinity” and the affinity corresponds to a Ki of 31900 ± 7960 nM.
Turning to `CC1NC(NCCNS(=O)(=O)c2cccc3ccccc23)=Nc2ccccc21` (stereo not drawn) [PP 9, N-{2-[(4-Methyl-3,4-dihydroquinazolin-2-yl)amino]ethyl}naphthalene-1-sulfonamide], the affinity at 5-HT6 corresponds to a Ki of 2420 ± 605 nM.
The compound `O=S(=O)(c1cccc2ccccc12)N1CCN(C2=Nc3ccccc3CN2)CC1` [PP 5, 2-[4-(Naphthalene-1-sulfonyl)piperazin-1-yl]-3,4-dihydroquinazoline] displayed a Ki on 5-HT6 of 3490 ± 872 nM.
